Structures can show the parent of a compound that is named as a salt.
biological target: T1, human hNET (Homo sapiens, UniProt P23975); test: Norepinephrine (NE) uptake assay in MDCK-Net6 cells; assay type: cell-based; conditions: 1 μM test compound, [3H]NE uptake
T1 construct: expressed in transfected cells
Description: MDCK-Net6 cells, stably transfected with human hNET (Pacholczyk, T., R. D. Blakely, and S. G. Amara, Nature, 1991, 350(6316): p. 350-4) were cultured in growth medium containing high glucose DMEM (Gibco, Cat. No. 11995), 10% FBS (dialyzed, heat-inactivated, US Bio-Technologies, Lot FBD1129HI) and 500 μg/ml G418 (Gibco, Cat. No. 10131). Cells were plated at 300,000/T75 flask and cells were split twice weekly. The JAR cell line (human placental choriocarcinoma) was purchased from ATCC (Cat. No. HTB-144). The cells were cultured in growth medium containing RPMI 1640 (Gibco, Cat. No. 72400), 10% FBS (Irvine, Cat. No. 3000), 1% sodium pyruvate (Gibco, Cat. No. 1136) and 0.25% glucose. Cells were plated at 250,000 cells/T75 flask and split twice weekly. For all assays, cells were plated in Wallac 96-well sterile plates (PerkinElmer, Cat. No. 3983498).
On day 1, cells were plated at 3,000 cells/well in growth medium and maintained in a cell incubator (37° C., 5% CO2). On day 2, growth medium was replaced with 200 μl of assay buffer (25 mM HEPES; 120 mM NaCl; 5 mM KCl; 2.5 mM CaCl2; 1.2 mM MgSO4; 2 mg/ml glucose (pH 7.4, 37° C.)) containing 0.2 mg/ml ascorbic acid and 10 μM pargyline. Plates containing cells with 200 μl of assay buffer were equilibrated for 10 minutes at 37° C. prior to addition of compounds. A stock solution of desipramine was prepared in DMSO (10 mM) and delivered to triplicate wells containing cells for a final test concentration of 1 μM. Data from these wells were used to define non-specific NE uptake (minimum NE uptake). Test compounds were prepared in DMSO (10 mM) and diluted in assay buffer according to test range (1 to 10,000 nM). Twenty-five microliters of assay buffer (maximum NE uptake) or test compound were added directly to triplicate wells containing cells in 200 μl of assay buffer. The cells in assay buffer with test compounds were incubated for 20 minutes at 37° C. To initiate the NE uptake, [^3H]NE diluted in assay buffer (120 nM final assay concentration) was delivered in 25 μl aliquots to each well and the plates were incubated for 5 minutes (37° C.). The reaction was terminated by decanting the supernatant from the plate. The plates containing cells were washed twice with 200 μl assay buffer (37° C.) to remove free radioligand. The plates were then inverted, left to dry for 2 minutes, then reinverted and air-dried for an additional 10 minutes. The cells were lysed in 25 μl of 0.25 N NaOH solution (4° C.), placed on a shake table and vigorously shaken for 5 minutes. After cell lysis, 75 μl of scintillation cocktail was added to each well and the plates were sealed with film tape. The plates were returned to the shake table and vigorously shaken for a minimum of 10 minutes to ensure adequate partitioning of organic and aqueous solutions. The plates were counted in a Wallac Microbeta counter (PerkinElmer) to collect the raw cpm data.
For each experiment, a data stream of cpm values collected from the Wallac Microbeta counter was downloaded to a Microsoft Excel statistical application program. Calculations of EC50 values were made using the transformed-both-sides logistic dose response program written by Wyeth Biometrics Department. The statistical program uses mean cpm values from wells representing maximum binding or uptake (assay buffer) and mean cpm values from wells representing minimum binding or uptake ((1 μM desipramine (hNET) or 1 μM paroxetine (hSERT)). Estimation of the EC50 value was completed on a log scale and the line was fit between the maximum and minimum binding or uptake values. All graphic data representation was generated by normalizing each data point to a mean percent based on the maximum and minimum binding or uptake values. The EC50 values reported from multiple experiments were calculated by pooling the raw data from each experiment and analyzing the pooled data as one experiment.

T1 sequence (P23975 whole entry): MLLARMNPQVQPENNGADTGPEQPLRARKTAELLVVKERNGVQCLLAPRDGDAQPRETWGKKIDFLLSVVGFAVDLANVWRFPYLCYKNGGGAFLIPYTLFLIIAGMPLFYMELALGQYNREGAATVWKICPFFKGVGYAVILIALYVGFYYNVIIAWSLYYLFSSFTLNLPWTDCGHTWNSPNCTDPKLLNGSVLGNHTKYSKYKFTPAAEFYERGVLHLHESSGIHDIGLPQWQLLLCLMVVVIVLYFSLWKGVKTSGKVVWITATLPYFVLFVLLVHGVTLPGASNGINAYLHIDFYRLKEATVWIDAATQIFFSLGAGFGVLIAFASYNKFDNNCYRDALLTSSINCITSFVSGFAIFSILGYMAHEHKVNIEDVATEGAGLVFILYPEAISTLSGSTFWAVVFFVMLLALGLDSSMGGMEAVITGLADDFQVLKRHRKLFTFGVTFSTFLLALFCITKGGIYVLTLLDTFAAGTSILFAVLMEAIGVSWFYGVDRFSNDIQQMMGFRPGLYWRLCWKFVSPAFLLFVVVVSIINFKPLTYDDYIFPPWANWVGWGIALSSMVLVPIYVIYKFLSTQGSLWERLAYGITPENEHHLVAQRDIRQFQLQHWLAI

| Structure (SMILES) | inhibition at 1 µM [%] |
| --- | --- |
| CN1CCN(CC(c2cccc(Cl)c2)C2(O)CCC3CCCCC3C2)CC1 (centres unmarked) [Example 332, 2-[1-(3-chlorophenyl)-2-(4-methypiperazin-1-yl)ethyl]decahydronaphthalen-2-ol dihydrochloride] | 41 |
| CC1CCC(O)(C(CN2CCNCC2)c2cccc(Cl)c2)CC1 (centres unmarked) [Example 334, 1-[1-(3-chlorophenyl)-2-piperazin-1-ylethyl]-4-methylcyclohexanol dihydrochloride] | 71.7 |
| CC1CCC(O)(C(CN2CCN(C)CC2)c2cccc(Cl)c2)CC1 (centres unmarked) [Example 335, 1-[1-(3-chlorophenyl)-2-(4-methylpiperazin-1-yl)ethyl]-4-methylcyclohexanol dihydrochloride] | 49.5 |
| CCC1CCC(O)(C(CN2CCN(C)CC2)c2cccc(Cl)c2)CC1 (centres unmarked) [Example 336, 1-[1-(3-chlorophenyl)-2-(4-methylpiperazin-1-yl)ethyl]-4-ethylcyclohexanol dihydrochloride] | 29 |

biological target: T1, human hNET; test: as above; assay type: cell-based; conditions: at 30 μM test compound, [3H]NE uptake

| Structure (SMILES) | inhibition at 30 µM [%] |
| --- | --- |
| CC1(C)CC(C)(C)CC(O)(C(CN2CCNCC2)c2cccc(Br)c2)C1 (centres unmarked) [Example 87, 1-[1-(3-bromophenyl)-2-piperazin-1-ylethyl]-3,3,5,5-tetramethylcyclohexanol dihydrochloride] | 47 |
| CCC(O)(CC)C(CN1CCN(C)CC1)c1cccc(Cl)c1 (centres unmarked) [Example 94, 2-(3-chlorophenyl)-3-ethyl-1-(4-methylpiperazin-1-yl)pentan-3-ol dihydrochloride] | 71 |
| CC(C)(C)C1CCC(O)(C(CN2CCNCC2)c2cccc(Br)c2)CC1 (centres unmarked) [Example 96, 1-[1-(3-bromophenyl)-2-piperazin-1-ylethyl]-4-tert-butylcyclohexanol dihydrochloride] | 100 |
| CN1CCN(CC(c2cccc(Cl)c2)C2(O)CCC(C(C)(C)C)CC2)CC1 (centres unmarked) [Example 101, 4-tert-butyl-1-[1-(3-chlorophenyl)-2-(4-methylpiperazin-1-yl)ethyl]cyclohexanol dihydrochloride] | 100 |
| OC1(C(CN2CCNCC2)c2cccc(Br)c2)CCOCC1 (centres unmarked) [Example 103, 4-[1-(3-bromophenyl)-2-piperazin-1-ylethyl]tetrahydro-2H-pyran-4-ol dihydrochloride] | 69 |
| OC1(C(CN2CCNCC2)c2cccc(Br)c2)C2CC3CC(C2)CC1C3 (centres unmarked) [Example 107, 2-[1-(3-bromophenyl)-2-piperazin-1-ylethyl]adamantan-2-ol dihydrochloride] | 67 |
| COc1ccc(C(CN2CCNCC2)C2(O)CCOCC2)cc1Br (centres unmarked) [Example 110, 4-[1-(3-bromo-4-methoxyphenyl)-2-piperazin-1-ylethyl]tetrahydro-2H-pyran-4-ol dihydrochloride] | 54 |
